This note sets out measurements from PubChem BioAssay AID602443 (National Center for Advancing Translational Sciences (NCATS), 2012).

Each structure is given as a SMILES string. ≈ marks a conversion by molar mass, not a printed value.

The test system of this series is aqueous kinetic solubility. The series is described as follows: High Content Assay for Compounds that inhibit the Assembly of the Perinucleolar Compartment: Aqueous Kinetic Solubility. The text has this:
The perinucleolar compartment (PNC) is a non-membrane-bound nuclear subdomain that is associated with but structurally distinct from the nucleolus. The PNC is a heritable trait, in which the number of PNCs per cell in daughter cells often mimics that of their mother cells. The PNC is heterogeneous in shape, is stable through interphase, disassembles during mitosis, and reassembles in early G1. The PNC is concentrated with newly synthesized RNA polymerase III (pol III) RNAs (MRP RNA, RNAse P H1 RNA, hY RNAs[hY1, 2, 5], Alu RNA, and SRP [7SL] RNA) and RNA binding proteins (nucleolin, PTB, CUG-BP, KSRP, Raver1, Raver2, and Rod).
Extensive in vitro studies have shown that the PNC is unique to tumor cells and preferentially forms in tumor cells derived from solid tissues. Examination of cancer cell lines from various origins and malignant capacities has shown that PNC prevalence correlates with the malignancy of tumors and has the potential to be developed as a pan-cancer prognostic marker.
This bioassay provides profiling data on aqueous kinetic solubility (PBS @ pH 7.4) of some of the lead compounds developed for this project.
NIH Chemical Genomics Center [NCGC]
NIH Molecular Libraries Probe Centers Network [MLPCN] […]
5. Concentration of the supernatant was determined by LC-UV or LC-MS/MS

For orientation: solubility means how much of the substance goes into solution per volume.

In the case of `N=c1c2c(-c3ccccc3)c(-c3ccccc3)n(Cc3ccccc3)c2ncn1C1CCC(O)CC1` (stereo unspecified), the solubility is 150 µM (≈ 71.2 µg/mL).
